# Results from the supplement of paper PMC5752671.
# Structures can show the parent of a compound that is named as a salt.
# Assays:
# Settings in all cases: 4 days
# [1] = test system: EOL-1; experiment: IC50 (cell viability) (log10 M)
# Procedure: (§1)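 14 AML cell lines were treated with 8 drug concentrations in duplicate on ECM-coated 384-well plates, with CellTiter-Glo viability read after 4 days. IC50 is the concentration where the fitted 4-parameter curve crosses 50% viability. For inactive compounds the maximum tested concentration is used as a placeholder.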
# [2] = test system: KASUMI1; experiment: IC50 (cell viability) (log10 M)
# Procedure: as §1
# [3] = test system: MOLM/16; experiment: IC50 (cell viability) (log10 M)
# Procedure: as §1
# [4] = test system: OCI-AML2; experiment: IC50 (cell viability) (log10 M)
# Procedure: as §1
# [5] = test system: THP-1; experiment: IC50 (cell viability) (log10 M)
# Procedure: as §1
# [6] = test system: NB4; experiment: IC50 (cell viability) (log10 M)
# Procedure: as §1
# [7] = test system: PL-21; experiment: IC50 (cell viability) (log10 M)
# Procedure: as §1
# [8] = test system: MOLM/13; experiment: IC50 (cell viability) (log10 M)
# Procedure: as §1
# [9] = test system: HL60; experiment: IC50 (cell viability) (log10 M)
# Procedure: as §1
# [10] = test system: KG1; experiment: IC50 (cell viability) (log10 M)
# Procedure: as §1
# [11] = test system: MV4.11; experiment: IC50 (cell viability) (log10 M)
# Procedure: as §1
# [12] = test system: SKM1; experiment: IC50 (cell viability) (log10 M)
# Procedure: as §1
# [13] = test system: U937; experiment: IC50 (cell viability) (log10 M)
# Procedure: as §1
# [14] = test system: OCI-AML3; experiment: IC50 (cell viability) (log10 M)
# Procedure: as §1
# [15] = test system: PL-21; experiment: area under dose-response curve (cell viability) (AUC (arbitrary, % viability x log concentration)); higher = less sensitive (more viable)
# Procedure, shortened: (§2)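 After overnight plating on extracellular-matrix-coated 384-well plates, fourteen leukemia cell lines received drugs by robot in duplicate at eight per-drug concentrations spanning 4–5 logs within 10^–12–10^–4 M. CellTiter-Glo was used to read viability 4 days later, and a four-parameter sigmoid was fitted to the mean of the duplicates. The reported figure is the area under this curve.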
# [16] = test system: HL60; experiment: as above
# Procedure, shortened: as §2
# [17] = test system: MV4.11; experiment: as above
# Procedure, shortened: as §2
# [18] = test system: SKM1; experiment: as above
# Procedure, shortened: as §2
# [19] = test system: U937; experiment: as above
# Procedure, shortened: as §2
# [20] = test system: OCI-AML3; experiment: as above
# Procedure, shortened: as §2
SMILES,IC50 (log10 M) [1],IC50 (log10 M) [2],IC50 (log10 M) [3],IC50 (log10 M) [4],IC50 (log10 M) [5],IC50 (log10 M) [6],IC50 (log10 M) [7],IC50 (log10 M) [8],IC50 (log10 M) [9],IC50 (log10 M) [10],IC50 (log10 M) [11],IC50 (log10 M) [12],IC50 (log10 M) [13],IC50 (log10 M) [14],area under dose-response curve [15],area under dose-response curve [16],area under dose-response curve [17],area under dose-response curve [18],area under dose-response curve [19],area under dose-response curve [20]
CO[C@H]1C[C@@H]2CC[C@@H](C)[C@@](O)(O2)C(=O)C(=O)N2CCCC[C@H]2C(=O)O[C@H]([C@H](C)C[C@@H]2CC[C@@H](O)[C@H](OC)C2)CC(=O)[C@H](C)/C=C(\C)[C@@H](O)[C@@H](OC)C(=O)[C@H](C)C[C@H](C)/C=C/C=C/C=C/1C [Rapamycin],< -8.34,-5.1,-6.06,> -5,> -5,> -5,> -5,> -5,-5.04,> -5,-6.28,-5.79,< -8.34,> -5,419,544,367,434,296,556
CN1CCC(CNc2ccc3ncc(-c4cccc(OC(F)(F)F)c4)n3n2)CC1 [SGI-1776],-7.6,-5.68,-6.4,-5.49,-5.4,-5.46,-5.52,-7.51,-5.34,-5.53,-7.53,-5.55,-5.36,-5.47,562,686,335,564,615,611
COc1cc(Nc2c(C#N)cnc3cc(OCCCN4CCN(C)CC4)c(OC)cc23)c(Cl)cc1Cl [SKI-606],-6.64,-5.37,-6.82,-5.56,-5.23,-5.64,-5.75,-5.82,-5.23,-5.99,-5.88,-5.63,-5.53,-5.47,530,715,545,539,590,604
CC(C)(C)c1cnc(CSc2cnc(NC(=O)C3CCNCC3)s2)o1 [SNS-032],-7.26,-6.66,-6.51,-7.04,-6.79,-6.56,-7.17,-7.06,-6.78,> -6,-6.84,-6.94,-6.88,-6.7,396,555,444,430,469,476
CNC(=O)c1cc(Oc2ccc(NC(=O)Nc3ccc(Cl)c(C(F)(F)F)c3)cc2)ccn1 [Sorafenib],-8.9,> -6,-6,> -6,> -6,> -6,> -6,-7.81,> -6,> -6,-8.56,> -6,-6.23,> -6,586,707,250,644,588,674
CN[C@@H]1C[C@H]2O[C@@](C)([C@@H]1OC)n1c3ccccc3c3c4c(c5c6ccccc6n2c5c31)C(=O)NC4 [Staurosporine],-9.94,-7.76,-8.09,-9.49,-7.64,-7.85,-8.44,-9.32,-7.56,-7.72,-9.79,-8.41,-7.91,-7.84,265,525,121,273,344,388
CCN(CC)CCNC(=O)c1c(C)[nH]c(/C=C2\C(=O)Nc3ccc(F)cc32)c1C [Sunitinib],-8.66,> -6,-6.45,> -6,> -6,> -6,> -6,-7.8,> -6,> -6,-8.14,> -6,> -6,> -6,617,707,301,635,694,662
Cc1cc(C(C)Nc2ccccc2)c2nc(N3CCOCC3)cc(=O)n2c1 (stereo not given) [TGX-221],-5.06,> -5,> -5,> -5,> -5,> -5,> -5,> -5,> -5,> -5,> -5,> -5,> -5,> -5,630,726,633,638,645,650
CN1CCN(c2ccc3nc(-c4c(N)c5c(F)cccc5[nH]c4=O)[nH]c3c2)CC1 [TKI258],-8.22,-6.25,-6.6,-6.42,> -6,> -6,> -6,-7.91,> -6,-6.78,-8.07,-6.04,> -6,> -6,588,666,313,544,588,659
CC1(C)CCC(C)(C)c2cc(NC(=O)c3ccc(C(=O)O)cc3)ccc21 [Tamibarotene],-8.22,> -5,> -5,-5.38,> -5,> -5,> -5,> -5,> -5,> -5,-6.79,> -5,> -5,-8.07,542,603,328,412,524,297
CC/C(=C(\c1ccccc1)c1ccc(OCCN(C)C)cc1)c1ccccc1 [Tamoxifen],-5.11,-5.23,-5.43,-5.33,-5.04,> -5,-5.01,> -5,-5.28,-5.16,-5.38,-5.01,-5.43,-5.17,582,664,629,636,613,601
COc1cc2c(N3CCN(C(=O)Nc4ccc(OC(C)C)cc4)CC3)ncnc2cc1OCCCN1CCCCC1 [Tandutinib],-7.82,> -5,> -5,> -5,> -5,> -5,> -5,-6.98,> -5,> -5,-6.16,> -5,> -5,> -5,623,729,319,653,672,684
Cn1nnc2c(C(N)=O)ncn2c1=O [Temozolomide],-5.14,> -5,> -5,> -5,> -5,> -5,> -5,> -5,> -5,> -5,> -5,> -5,> -5,> -5,611,671,670,674,668,686
CO[C@H]1C[C@@H]2CC[C@@H](C)[C@@](O)(O2)C(=O)C(=O)N2CCCC[C@H]2C(=O)O[C@H]([C@H](C)C[C@@H]2CC[C@@H](OC(=O)C(C)(CO)CO)[C@H](OC)C2)CC(=O)[C@H](C)/C=C(\C)[C@@H](O)[C@@H](OC)C(=O)[C@H](C)C[C@H](C)/C=C/C=C/C=C/1C [Temsirolimus],-8.34,-5.22,-6.13,-5.46,> -5,> -5,-5.28,-5.4,-5.09,> -5,-6.33,-5.46,-7.89,> -5,435,592,385,436,302,557
Cn1cncc1[C@@](N)(c1ccc(Cl)cc1)c1ccc2c(c1)c(-c1cccc(Cl)c1)cc(=O)n2C [Tipifarnib],< -8.34,-6.28,< -8.34,-6.74,-8.34,< -8.34,-5.9,-5.86,-5.97,-6.6,-6.7,-5.92,-7.51,-6.36,441,490,378,425,313,392
CC[C@@]1(O)C(=O)OCc2c1cc1n(c2=O)Cc2cc3c(CN(C)C)c(O)ccc3nc2-1 [Topotecan HCl],< -8.34,-8.14,< -8.34,< -8.34,-7.97,< -8.34,-8.04,< -8.34,-8.26,< -8.34,< -8.34,< -8.34,< -8.34,-8.34,299,296,231,269,263,269
CC(C)C[C@@H](C(=O)N[C@H](C(=O)OC1CCCC1)c1ccccc1)[C@H](O)C(=O)NO [Tosedostat],-5.46,> -5,-6.4,> -5,-5.02,-6,-5.35,-5.17,> -5,-5.48,-5.23,> -5,-6.37,> -5,520,682,731,655,462,650
Cc1cc(Nc2cc(N3CCN(C)CC3)nc(Sc3ccc(NC(=O)C4CC4)cc3)n2)n[nH]1 [Tozasertib],< -8.48,-6.82,< -8.48,-8.4,-6.93,-6.61,-5.8,< -8.48,-5.64,-7.15,< -8.48,-6.61,< -8.48,-6.91,453,505,91,421,215,370
CC1=C(/C=C/C(C)=C/C=C/C(C)=C/C(=O)O)C(C)(C)CCC1 [Tretinoin],-8.11,-5.14,> -5,-6.18,> -5,> -5,> -5,-6.43,-5.24,> -5,-7.2,-5.91,-6.27,-7.6,523,506,338,410,452,333
CCCC(CCC)C(=O)O [Valproic acid],> -5,> -5,> -5,> -5,> -5,> -5,> -5,> -5,> -5,> -5,> -5,> -5,> -5,> -5,640,703,720,688,692,718
